Experimental data taken from US12410160B2 (Gilead Sciences, Inc., priority 2021, dated 2025).
Where two headings read alike, the source gives them in different places.

Columns and labels:
human KHK-C = human KHK-C (Homo sapiens (Human), UniProt P50053); experiment: KHK Biochemical Assay (IC50), ADP-Glo, KHK-C; details: average of at least two separate assays
How it was run: (§1)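 ADP-Glo luminescence measured ADP made over a 4 h room-temperature reaction of ATP plus fructose, started after 30 min compound–enzyme pre-incubation. Buffer: 50 mM Hepes pH 7.4, 140 mM KCl, 5 mM MgCl2, 0.01% Triton-X. Enzyme was His-tagged, BL21 (DE3)-expressed, Ni-NTA-purified; compounds in 1:3 DMSO dilution series.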

human KHK-A = human KHK-A (Homo sapiens (Human), UniProt P50053); experiment: KHK Biochemical Assay (IC50), ADP-Glo, KHK-A; details: average of at least two separate assays
human KHK-A, sequence (P50053 other isoform, or with tags, fused parts or gaps): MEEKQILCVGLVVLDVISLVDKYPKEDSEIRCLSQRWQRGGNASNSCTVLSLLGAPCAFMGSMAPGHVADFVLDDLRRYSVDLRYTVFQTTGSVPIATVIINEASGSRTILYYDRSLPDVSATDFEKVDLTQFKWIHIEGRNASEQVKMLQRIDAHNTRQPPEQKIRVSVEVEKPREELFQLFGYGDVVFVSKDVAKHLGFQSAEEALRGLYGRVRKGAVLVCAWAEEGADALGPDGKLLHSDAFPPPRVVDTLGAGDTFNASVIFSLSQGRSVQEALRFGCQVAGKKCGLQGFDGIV
How it was run: as §1

[1] = molecular target: KHK-C expressed in NRK-52E cells (Homo sapiens (Human), UniProt P50053); experiment: KHK-C Cell-based Assay (EC50), NRK CTG, fructose-mediated ATP-depletion
KHK-C expressed in NRK-52E cells, sequence (P50053 whole entry): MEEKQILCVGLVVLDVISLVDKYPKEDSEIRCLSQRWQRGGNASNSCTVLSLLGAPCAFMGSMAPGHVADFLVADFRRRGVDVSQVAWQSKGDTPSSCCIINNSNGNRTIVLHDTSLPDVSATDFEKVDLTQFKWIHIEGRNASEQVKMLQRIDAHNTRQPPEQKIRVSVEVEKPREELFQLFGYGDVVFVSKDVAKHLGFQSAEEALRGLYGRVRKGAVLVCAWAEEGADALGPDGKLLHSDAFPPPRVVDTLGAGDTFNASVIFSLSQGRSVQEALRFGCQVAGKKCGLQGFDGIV

human KHK-C, sequence (P50053 whole entry): as above

| SMILES | IC50 (human KHK-C; ADP-Glo) [µM] | IC50 (human KHK-A; ADP-Glo) [µM] | EC50 [1] [µM] | IC50 (human KHK-C) [µM] | IC50 (human KHK-A) [µM] | EC50 ([1]; read-out: NRK CTG EC50, NRK-52E cells, Cell-Titer Glo, 25 mM fructose) [µM] |
| --- | --- | --- | --- | --- | --- | --- |
| C[C@H]1CCN1c1nc2c(c(-c3cccc([C@@H]4C[C@H]4C(=O)O)c3)n1)CCC2 (single isomer, unassigned) [Example 90] | 0.0112 | 0.0089 | 0.121 | – | – | – |
| C[C@H]1[C@H](O)CN1c1nc(-c2ccc3c(c2)OC[C@]32NC(=O)OC2(C)C)c2c(n1)C(F)(F)CC2 (single isomer, unassigned) [Example 566] | – | – | 0.0067 | 0.0008 | 0.0163 | – |
| C[C@H]1[C@H](O)CN1c1nc(-c2ccc3c(c2)CC[C@@]32CCC(=O)N2)c2c(n1)C(F)(F)CC2 (single isomer, unassigned) [Example 637] | – | – | 0.161 | 0.0221 | 0.0351 | – |
| C[C@H]1[C@H](O)CN1c1nc(-c2ccc3c(c2)CC[C@]32CCC(=O)N2)c2c(n1)C(F)(F)CC2 (single isomer, unassigned) [Example 638] | – | – | 0.0061 | 0.0003 | 0.0085 | – |
| C[C@H]1[C@H](O)CN1c1nc(-c2ccc3c(c2)COC[C@@]32CCC(=O)N2)c2c(n1)C(F)(F)CC2 (single isomer, unassigned) [Example 640] | – | – | 0.28 | 0.0292 | 0.0388 | – |
| C[C@H]1[C@H](O)CN1c1nc(-c2ccc3c(c2)COC[C@]32CCC(=O)N2)c2c(n1)C(F)(F)CC2 (single isomer, unassigned) [Example 641] | – | – | – | 0.0009 | 0.0145 | 0.0203 |
| C[C@H]1CCN1c1nc(-c2cccc(N=[S@@](C)(N)=O)c2)c2c(n1)C(F)(F)CC2 (single isomer, unassigned) [Example 691] | – | – | 0.0504 | 0.0074 | 0.0075 | – |
| C[C@H]1[C@H](O)CN1c1nc(-c2ccc3c(c2)OC[C@@]32CN(C)C(=O)N2)c2c(n1)C(F)(F)CC2 (single isomer, unassigned) [Example 702] | – | – | 0.0039 | 0.0002 | 0.0117 | – |
| C[C@H]1CCN1c1nc2c(c(-c3cccc([C@H]4C[C@@H]4C#N)c3)n1)CCC2 (stereo in doubt) [Example 454, trans-2-[3-[2-[(2S)-2-methylazetidin-1-yl]-6,7-dihydro-5H-cyclopenta[d]pyrimidin-4-yl]phenyl]cyclopropanecarbonitrile] | – | – | 0.546 | 0.489 | 0.459 | – |
| Cc1ccc(-c2nc(N3CC[C@@H]3C)nc3c2CCC3)cc1C(N)=O [Example 27, (S)-2-methyl-5-(2-(2-methylazetidin-1-yl)-6,7-dihydro-5H-cyclopenta[d]pyrimidin-4-yl)benzamide] | 0.0597 | 0.0589 | 0.229 | – | – | – |
| C[C@H]1CCN1c1nc2c(c(-c3cccc(CCC(N)=O)c3)n1)CCC2 [Example 29] | 0.033 | 0.0553 | 0.12 | – | – | – |
| Cc1ncc(-c2nc(N3CC[C@@H]3C)nc3c2CCC3)s1 [Example 34, (S)-2-methyl-5-(2-(2-methylazetidin-1-yl)-6,7-dihydro-5H-cyclopenta[d]pyrimidin-4-yl)thiazole] | 0.0645 | 0.0527 | 0.142 | – | – | – |
| C[C@H]1CCN1c1nc2c(c(-c3cscn3)n1)CCC2 [Example 36, (S)-4-(2-(2-methylazetidin-1-yl)-6,7-dihydro-5H-cyclopenta[d]pyrimidin-4-yl)thiazole] | 0.146 | 0.147 | 0.434 | – | – | – |
| C[C@H]1[C@H](O)CN1c1nc(-c2cccc(S(N)(=O)=O)c2)c2c(cnn2C)n1 [Example 38] | 0.836 | 0.812 | 12.2 | – | – | – |
| C[C@H]1CCN1c1nc2c(c(-c3ccc4[nH]ncc4c3)n1)CCC2 [Example 39, (S)-5-(2-(2-methylazetidin-1-yl)-6,7-dihydro-5H-cyclopenta[d]pyrimidin-4-yl)-1H-indazole] | 0.113 | 0.0862 | 0.211 | – | – | – |
| CC(=O)Nc1cccc(-c2nc(N3C[C@@H](O)[C@@H]3C)nc3c2CCC3)c1 [Example 41] | 0.125 | 0.102 | 0.602 | – | – | – |
| C[C@H]1[C@H](O)CN1c1nc2c(c(-c3cccc(NS(C)(=O)=O)c3)n1)CCC2 [Example 43, N-(3-(2-((2S,3R)-3-hydroxy-2-methylazetidin-1-yl)-6,7-dihydro-5H-cyclopenta[d]pyrimidin-4-yl)phenyl)methanesulfonamide] | 0.0481 | 0.0668 | 0.225 | – | – | – |
| C[C@H]1[C@H](O)CN1c1nc2c(c(-c3cccc(C4CC4C(=O)O)c3)n1)CCC2 (stereo partly drawn) [Example 47, 2-(3-(2-((2S,3R)-3-hydroxy-2-methylazetidin-1-yl)-6,7-dihydro-5H-cyclopenta[d]pyrimidin-4-yl)phenyl)cyclopropane-1-carboxylic acid] | 0.0152 | 0.0294 | 2.37 | – | – | – |
| C[C@H]1[C@H](F)CN1c1nc2c(c(-c3cccc(C4CC4C(=O)O)c3)n1)CCC2 (stereo partly drawn) [Example 48] | 0.0053 | 0.0071 | 0.0771 | – | – | – |

The next lines start with the values.

| IC50 (human KHK-C; ADP-Glo) [µM] | IC50 (human KHK-A; ADP-Glo) [µM] | EC50 [1] [µM] | IC50 (human KHK-C) [µM] | IC50 (human KHK-A) [µM] | EC50 ([1]; read-out: NRK CTG EC50, NRK-52E cells, Cell-Titer Glo, 25 mM fructose) [µM] | SMILES |
| --- | --- | --- | --- | --- | --- | --- |
| – | – | 0.0057 | 0.0006 | 0.0005 | – | C[C@H]1[C@H](O)CN1c1nc(-c2ccc(OC3CC3)c([S@@](C)(=N)=O)c2)c2c(n1)C(F)(F)CC2 (single isomer, unassigned) [Example 542] |
| – | – | 0.0449 | 0.0083 | 0.0069 | – | C[C@H]1CCN1c1nc(-c2cccc(N=[S@](C)(N)=O)c2)c2c(n1)C(F)(F)CC2 (single isomer, unassigned) [Example 692] |
| – | – | 0.108 | 0.0205 | 0.0318 | – | C[C@H]1[C@H](O)CN1c1nc(-c2ccc3c(c2)OC[C@]32CN(C)C(=O)N2)c2c(n1)C(F)(F)CC2 (single isomer, unassigned) [Example 701] |
| 1.63 | 2.1 | 0.7 | – | – | – | C[C@H]1CCN1c1nc2c(c(-c3ccc(C(O)C(F)(F)F)cc3)n1)CCC2 (stereo in doubt) [Example 265, 2,2,2-trifluoro-1-[4-[2-[(2S)-2-methylazetidin-1-yl]-6,7-dihydro-5H-cyclopenta[d]pyrimidin-4-yl]phenyl]ethanol] |
| > 5 | > 5 | > 5 | – | – | – | C[C@H]1CCN1c1nc2c(c(-c3ccc(C(N)C(F)(F)F)cc3)n1)CCC2 (stereo in doubt) [Example 269, 2,2,2-trifluoro-1-[4-[2-[(2S)-2-methylazetidin-1-yl]-6,7-dihydro-5H-cyclopenta[d]pyrimidin-4-yl]phenyl]ethanamine] |
| – | – | 0.0518 | 0.0218 | 0.0448 | – | C[C@H]1CCN1c1nc2c(c(-c3cccc([C@H]4C[C@@H]4C(N)=O)c3)n1)CCC2 (stereo in doubt) [Example 456, trans-2-[3-[2-[(2S)-2-methylazetidin-1-yl]-6,7-dihydro-5H-cyclopenta[d]pyrimidin-4-yl]phenyl]cyclopropanecarboxamide] |
| 0.0503 | 0.0552 | 0.137 | – | – | – | CNC(=O)c1cccc(-c2nc(N3CC[C@@H]3C)nc3c2CCC3)c1 [Example 28, (S)—N-methyl-3-(2-(2-methylazetidin-1-yl)-6,7-dihydro-5H-cyclopenta[d]pyrimidin-4-yl)benzamide] |
| 0.259 | 0.286 | 0.329 | – | – | – | C[C@H]1CCN1c1nc2c(c(-c3ccc4cn[nH]c4c3)n1)CCC2 [Example 44, (S)-6-(2-(2-methylazetidin-1-yl)-6,7-dihydro-5H-cyclopenta[d]pyrimidin-4-yl)-1H-indazole] |
